# Measured values as given in patent US9890407B2, “Method for synthesizing cellulose in vitro” (University of Virginia Patent Foundation, priority 2013, dated 2018).
# Legend:
# [1] = target: T1, Rhodobacter sphaeroides BcsA-B complex (cellulose synthase), wild type, BcsA SEQ ID NO: 1, BcsB SEQ ID NO: 3 (Cereibacter sphaeroides, UniProt Q3J125); experiment: Enzyme-coupled (PK/LDH, NADH oxidation) cellulose synthase assay, ND-reconstituted BcsA-B; format: biochemical; details: titration of UDP-Glc at increasing c-di-GMP concentrations
# T1 construct: pETDuet, E. coli C43; purified, reconstituted in nanodiscs, proteoliposomes or detergent
# T1 sequence (Q3J125 1-788): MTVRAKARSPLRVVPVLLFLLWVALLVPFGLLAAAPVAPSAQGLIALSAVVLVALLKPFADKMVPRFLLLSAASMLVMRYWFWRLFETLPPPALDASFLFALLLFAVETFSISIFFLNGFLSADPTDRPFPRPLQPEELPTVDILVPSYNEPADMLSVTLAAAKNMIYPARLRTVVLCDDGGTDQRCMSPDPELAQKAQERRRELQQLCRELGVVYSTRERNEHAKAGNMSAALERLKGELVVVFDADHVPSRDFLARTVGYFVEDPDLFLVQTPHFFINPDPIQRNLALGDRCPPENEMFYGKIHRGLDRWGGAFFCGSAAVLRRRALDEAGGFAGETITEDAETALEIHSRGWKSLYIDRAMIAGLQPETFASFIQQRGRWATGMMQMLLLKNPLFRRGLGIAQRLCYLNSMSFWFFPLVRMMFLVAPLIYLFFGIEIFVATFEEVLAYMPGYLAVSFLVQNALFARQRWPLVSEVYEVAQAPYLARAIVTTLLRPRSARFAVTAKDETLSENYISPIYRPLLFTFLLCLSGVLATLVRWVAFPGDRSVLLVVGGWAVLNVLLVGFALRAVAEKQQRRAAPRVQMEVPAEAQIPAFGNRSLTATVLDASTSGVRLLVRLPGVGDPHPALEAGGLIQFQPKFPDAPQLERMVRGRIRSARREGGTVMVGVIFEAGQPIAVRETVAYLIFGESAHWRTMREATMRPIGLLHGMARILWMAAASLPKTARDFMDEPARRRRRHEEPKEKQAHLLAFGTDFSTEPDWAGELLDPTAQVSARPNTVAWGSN
# T1 sequence (Q3J126 21-725 partner): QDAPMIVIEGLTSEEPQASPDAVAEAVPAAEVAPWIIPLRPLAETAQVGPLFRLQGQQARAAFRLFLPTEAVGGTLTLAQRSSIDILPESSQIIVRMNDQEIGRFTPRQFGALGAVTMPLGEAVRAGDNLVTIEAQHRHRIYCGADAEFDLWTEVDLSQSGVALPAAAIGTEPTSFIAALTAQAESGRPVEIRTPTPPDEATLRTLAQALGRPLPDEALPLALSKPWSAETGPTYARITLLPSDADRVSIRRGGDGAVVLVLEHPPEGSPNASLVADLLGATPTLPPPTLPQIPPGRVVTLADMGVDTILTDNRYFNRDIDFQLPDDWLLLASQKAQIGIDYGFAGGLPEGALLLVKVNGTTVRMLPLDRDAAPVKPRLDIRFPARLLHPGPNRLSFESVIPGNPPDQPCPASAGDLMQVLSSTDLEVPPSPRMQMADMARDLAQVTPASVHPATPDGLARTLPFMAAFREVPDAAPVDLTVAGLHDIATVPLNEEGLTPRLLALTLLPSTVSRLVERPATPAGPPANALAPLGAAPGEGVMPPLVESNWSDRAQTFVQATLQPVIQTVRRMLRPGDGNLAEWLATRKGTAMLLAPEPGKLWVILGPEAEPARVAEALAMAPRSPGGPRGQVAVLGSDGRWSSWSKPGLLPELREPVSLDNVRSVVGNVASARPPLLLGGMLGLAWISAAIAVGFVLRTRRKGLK
# [2] = target: T2, Rhodobacter sphaeroides BcsA-B complex, wild type (WT), BcsA SEQ ID NO: 1, BcsB SEQ ID NO: 3 (Cereibacter sphaeroides, UniProt Q3J125); experiment: Isothermal titration calorimetry, c-di-GMP binding to wild type BcsA-B; details: ITC, 1 mM LFCE14, 25° C.
# T2 construct: E. coli; purified in LFCE14 detergent for ITC
# T2 sequence (Q3J125 1-788): T1 sequence (Q3J125 1-788)
# T2 sequence (Q3J126 21-725 partner): T1 sequence (Q3J126 21-725 partner)
# Experimental: (§1) FIG. 23A-23B (also referred to as Example 2, Supplementary FIG. 5): Cellulose synthesis activity of BcsA mutants and c-di-GMP binding. (FIG. 23A) Cellulose synthesis assays were performed in inverted membrane vesicles and proteoliposomes as described in the Experimental Procedures. The amount of ^3H-glucose-labeled cellulose produced by each mutant is quantified and graphed. 1 μl of IMV's were used for each mutant. For PL assays, the protein concentrations were matched based on UV absorbance and SDS-PAGE followed by Coomassie staining. The apparent lower activity of the R580A mutant may be due to differences in the relative orientation of the enzyme in the PLs or its overall stability. +/−: Experiments performed in the presence and absence of 30 μM c-di-GMP. All data represent the means±SD for 3 technical replicates. (FIG. 23B) Binding of c-di-GMP to the BcsA-R580A mutant. The ability of the R580A mutant to bind c-di-GMP was assessed using ITC.
# (§2) The protein was purified in 1 mM LFCE14 as described above. Measurements were carried out at 25° C. in a MicroCal iTC200 system (GE Healthcare) with 250 μl of BcsA-B in the cell at 9.3 μM for WT and 11 μM for the BcsA-Arg580Ala complex and 400 μM c-di-GMP in the syringe. An initial 0.5 μl injection was followed by 39 1 μl injections spaced 180 s apart with stirring at 700 rpm. The data were fit using Origin 7.0 as provided by the manufacturer.
# [3] = target: BcsA-Arg580Ala complex; experiment: Isothermal titration calorimetry, c-di-GMP into BcsA-R580A complex; format: binding, Rhodobacter sphaeroides; details: BcsA-R580A in 1 mM LFCE14, 25° C.; read-out: Kd of c-di-GMP (ITC)
# Experimental: as §1, §2
# [4] = target: T3, Rhodobacter sphaeroides BcsA-B complex, BcsA variant R580A (Arg580Ala; parent BcsA SEQ ID NO: 1), BcsB SEQ ID NO: 3 (Cereibacter sphaeroides, UniProt Q3J125, R580A); experiment: Isothermal titration calorimetry, c-di-GMP binding to the BcsA-R580A mutant
# T3 sequence (Q3J125 entry or part of it R580A, one chain of several): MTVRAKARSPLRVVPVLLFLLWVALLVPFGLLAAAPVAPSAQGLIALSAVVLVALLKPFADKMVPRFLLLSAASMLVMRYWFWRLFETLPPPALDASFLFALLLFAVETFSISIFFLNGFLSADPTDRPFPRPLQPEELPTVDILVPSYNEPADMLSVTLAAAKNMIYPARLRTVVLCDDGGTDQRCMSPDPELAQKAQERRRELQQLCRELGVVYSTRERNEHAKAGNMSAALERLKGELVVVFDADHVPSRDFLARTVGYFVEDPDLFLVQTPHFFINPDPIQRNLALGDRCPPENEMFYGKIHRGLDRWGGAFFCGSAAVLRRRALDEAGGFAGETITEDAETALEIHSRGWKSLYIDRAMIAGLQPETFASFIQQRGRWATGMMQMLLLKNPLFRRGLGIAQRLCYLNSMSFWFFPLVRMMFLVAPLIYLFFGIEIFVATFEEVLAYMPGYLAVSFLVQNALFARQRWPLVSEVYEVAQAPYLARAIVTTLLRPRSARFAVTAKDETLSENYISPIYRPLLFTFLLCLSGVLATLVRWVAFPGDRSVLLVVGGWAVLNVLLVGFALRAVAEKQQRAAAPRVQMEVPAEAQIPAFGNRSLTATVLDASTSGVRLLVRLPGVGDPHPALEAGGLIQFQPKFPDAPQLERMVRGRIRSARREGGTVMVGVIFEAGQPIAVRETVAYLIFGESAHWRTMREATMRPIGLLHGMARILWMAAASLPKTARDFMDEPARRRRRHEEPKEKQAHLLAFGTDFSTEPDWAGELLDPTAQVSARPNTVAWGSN
# Experimental: as §1, §2
# [5] = target: T3, Rhodobacter sphaeroides BcsA-B complex, BcsA variant R580A (Arg580Ala; parent BcsA SEQ ID NO: 1), BcsB SEQ ID NO: 3; format: biochemical; details: c-di-GMP more than 50-fold above its dissociation constant
structure (smiles),measurement,setting,value
"Nc1nc2c(ncn2[C@@H]2O[C@@H]3COP(=O)(O)O[C@H]4[C@@H](O)[C@H](n5cnc6c(=O)[nH]c(N)nc65)O[C@@H]4COP(=O)(O)O[C@H]3[C@H]2O)c(=O)[nH]1 [c-di-GMP, cyclic dimeric guanosine monophosphate]",effect of c-di-GMP on BcsA's apparent affinity for UDP-Glc,[1],does not alter BcsA's apparent affinity for UDP-Glc
same,Kd,[2],400 nM
same,Kd,[3],1600 nM
same,Kd,[4],1600 nM
same,stoichiometry of c-di-GMP binding,"[4]; ITC, 1 mM LFCE14, 25° C.",~0.5
same,stimulation of cellulose biosynthesis by c-di-GMP,[5],no further stimulation
